Measurements published in US8778923B2, “GLP-1 receptor modulators” (Receptos, Inc., priority 2011, dated 2014).
pEC50: −log10 of the molar value.

Molecular target: T1, GLP-1R (Homo sapiens, UniProt P43220)
T1 construct: host or cells: CRE-bla CHO-K1
Test: EC20 GLP-1(9-36) PAM cAMP assay: dose response of compound in the presence of fixed concentration of GLP-1(9-36)
Assay type: cell-based
Details: GLP-1R CRE-bla CHO-K1 cells, compound dose response in presence of fixed concentration of GLP-1(9-36)
Description: EC20 GLP-1(9-36) PAM cAMP Assay: Dose Response of Compound in the Presence of Fixed Concentration of GLP-1 (9-36).
GLP-1R CRE-bla CHO-K1 cells cultured in growth medium (DMEM-High glucose, 10% dialyzed FBS, 0.1 mM NEAA, 25 mM Hepes, 100 U/mL penicillin/100 μg/mL streptomycin, 5 μg/mL Blasticidin, 600 μg/mL Hygromycin) were tryspsinized and plated in suspension into 384 well white flat bottom plates at 5000 cells/well in 12 μL assay buffer (Hanks Balanced Salt solution, 10 mM Hepes, 0.1% BSA, pH 7.4). A 5× compound dose response curve (12-point) was generated in assay buffer containing 1.5 mM IBMX, 12.5% DMSO. GLP-1(9-36) was diluted to 4.2 μM in assay buffer containing 1.5 mM IBMX and 12.5% DMSO. The 5× compound dose response was added (3 μL), followed by 0.5 μL of GLP-1(9-36) and cells were incubated for 30 min at 37° C. Direct detection of cAMP was carried out using DiscoveRx HitHunter cAMP kit according to manufacturer's instructions and luminescence was read using a SpectraMax M5 plate reader. Luminescence was converted to total cAMP using a cAMP standard curve and data was analyzed by non-linear regression to determine the EC50 and Emax.
GLP-1(7-36): […]-NH2. GLP-1(9-36): […]-NH2. GLP-1(7-36) was purchased from GenScript. GLP-1(9-36) was purchased from Biopeptide Co., Inc.

T1 sequence (P43220 24-463): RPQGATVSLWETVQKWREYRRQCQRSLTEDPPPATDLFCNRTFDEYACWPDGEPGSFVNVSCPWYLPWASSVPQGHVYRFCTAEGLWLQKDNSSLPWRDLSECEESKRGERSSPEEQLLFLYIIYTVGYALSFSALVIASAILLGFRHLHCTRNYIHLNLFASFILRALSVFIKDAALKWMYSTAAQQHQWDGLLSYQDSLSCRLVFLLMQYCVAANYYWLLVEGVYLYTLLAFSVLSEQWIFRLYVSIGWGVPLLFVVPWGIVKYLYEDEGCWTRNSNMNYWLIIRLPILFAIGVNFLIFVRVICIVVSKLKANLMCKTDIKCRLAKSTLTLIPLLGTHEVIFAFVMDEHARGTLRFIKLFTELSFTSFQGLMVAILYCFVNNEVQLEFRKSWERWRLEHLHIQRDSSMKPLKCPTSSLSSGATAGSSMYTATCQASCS
T1 sequence (P01275 100-127 partner limits assumed): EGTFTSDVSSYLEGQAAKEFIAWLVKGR

| SMILES | pEC50 |
| --- | --- |
| CC(=O)c1ccc(-c2nc(-c3ccc(C[C@H](NC(=O)c4ccc(C(C)(C)C)cc4)C(=O)O)cc3)no2)cc1 [Compound 45] | 5.60 to 6.10 |
| CCCc1ccc(-c2nc(-c3ccc(C[C@H](NC(=O)c4ccc(C(C)(C)C)cc4)C(=O)O)cc3)no2)cc1 [Compound 46] | 5.60 to 6.10 |
| CN(C)c1ccc(-c2nc(-c3ccc(C[C@H](NC(=O)c4ccc(C(C)(C)C)cc4)C(=O)O)cc3)no2)cc1 [Compound 47] | 5.30 to 5.60 |
| CCN(CC)c1ccc(-c2nc(-c3ccc(C[C@H](NC(=O)c4ccc(C(C)(C)C)cc4)C(=O)O)cc3)no2)cc1 [Compound 48] | 5.00 to 5.30 |
| Cn1ccc2c(-c3nc(-c4ccc(C[C@H](NC(=O)c5ccc(C(C)(C)C)cc5)C(=O)O)cc4)no3)cccc21 [Compound 49] | 5.00 to 5.30 |
| Cn1ccc2cc(-c3nc(-c4ccc(C[C@H](NC(=O)c5ccc(C(C)(C)C)cc5)C(=O)O)cc4)no3)ccc21 [Compound 50] | 5.30 to 5.60 |
| CCCCCCCOc1ccc(-c2nc(-c3ccc(C[C@H](NC(=O)c4ccc(C(C)(C)C)cc4)C(=O)O)cc3)no2)cn1 [Compound 51] | 5.30 to 5.60 |
| CN1CCCc2c(-c3nc(-c4ccc(C[C@H](NC(=O)c5ccc(C(C)(C)C)cc5)C(=O)O)cc4)no3)cccc21 [Compound 52] | 5.60 to 6.10 |
| CN(C)c1cccc(-c2nc(-c3ccc(C[C@H](NC(=O)c4ccc(C(C)(C)C)cc4)C(=O)O)cc3)no2)c1 [Compound 53] | 5.30 to 5.60 |
| CC(C)(C)c1ccc(C(=O)N[C@@H](Cc2ccc(-c3noc(-c4ccc(S(N)(=O)=O)cc4)n3)cc2)C(=O)O)cc1 [Compound 54] | 5.30 to 5.60 |
| CN(CCO)c1ccc(-c2nc(-c3ccc(C[C@H](NC(=O)c4ccc(C(C)(C)C)cc4)C(=O)O)cc3)no2)cc1 [Compound 55] | 5.30 to 5.60 |
| CC(C)(C)Oc1ccc(-c2nc(-c3ccc(C[C@H](NC(=O)c4ccc(C(C)(C)C)cc4)C(=O)O)cc3)no2)cc1 [Compound 56] | 5.30 to 5.60 |
| Cc1cc(C)cc(-c2nc(-c3ccc(C[C@H](NC(=O)c4ccc(C(C)(C)C)cc4)C(=O)O)cc3)no2)c1 [Compound 57] | 5.30 to 5.60 |
| Cc1ccc(-c2nc(-c3ccc(C[C@H](NC(=O)c4ccc(C(C)(C)C)cc4)C(=O)O)cc3)no2)cc1C [Compound 58] | 5.30 to 5.60 |
| CC(C)Sc1ccc(-c2nc(-c3ccc(C[C@H](NC(=O)c4ccc(C(C)(C)C)cc4)C(=O)O)cc3)no2)cc1 [Compound 59] | 5.30 to 5.60 |
| CC(C)(C)c1ccc(C(=O)N[C@@H](Cc2ccc(-c3noc(-c4ccc5ccccc5c4)n3)cc2)C(=O)O)cc1 [Compound 60] | 5.30 to 5.60 |
| CC(C)(C)c1ccc(C(=O)N[C@@H](Cc2ccc(-c3noc(-c4ccc(C(N)=O)cc4)n3)cc2)C(=O)O)cc1 [Compound 61] | 5.30 to 5.60 |
| CC(C)(C)c1ccc(C(=O)N[C@@H](Cc2ccc(-c3noc(-c4ccc(N)cc4)n3)cc2)C(=O)O)cc1 [Compound 62] | 5.30 to 5.60 |
| CNc1ccc(-c2nc(-c3ccc(C[C@H](NC(=O)c4ccc(C(C)(C)C)cc4)C(=O)O)cc3)no2)cc1 [Compound 63] | 5.60 to 6.10 |
| CC(C)(C)c1ccc(C(=O)N[C@@H](Cc2ccc(-c3noc(-c4ccc5[nH]ccc5c4)n3)cc2)C(=O)O)cc1 [Compound 64] | 5.60 to 6.10 |
| CC(C)Nc1ccc(-c2nc(-c3ccc(C[C@H](NC(=O)c4ccc(C(C)(C)C)cc4)C(=O)O)cc3)no2)cc1 [Compound 65] | 5.30 to 5.60 |
| CC(C)(C)c1ccc(C(=O)N[C@@H](Cc2ccc(-c3noc(-c4cccc5c4CCNC5)n3)cc2)C(=O)O)cc1 [Compound 66] | 5.30 to 5.60 |
| CCCCCCCOc1ccc(-c2nc(-c3ccc(C[C@H](NC(=O)c4ccc(C(C)(C)C)cc4)C(=O)NCC(=O)O)cc3)no2)cc1 [Compound 67, (S)-2-(2-(4-(tert-butyl)benzamido)-3-(4-(5-(4-(heptyloxy)phenyl)-1,2,4-oxadiazol-3-yl)phenyl)propanamido)acetic acid] | 5.60 to 6.10 |
| CC(C)(C)c1ccc(C(=O)N[C@@H](Cc2ccc(-c3noc(-c4ccc(N5CCCCC5)cc4)n3)cc2)C(=O)NCC(=O)O)cc1 [Compound 68] | 5.30 to 5.60 |
